The supplement of paper PMC11061612

Experiments:
[1] = tested on: NOS-1 (Osteosarcoma); experiment: combination Emax (second highest fraction inhibited in the dose matrix, 72 h); higher = more inhibition; extreme values may be limits of the assay
Method in brief: (§1)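 Bliss excess equals the observed combination effect minus the expected value EA + EB − EA·EB, where EA and EB are the effects of each agent alone. Combination Emax is the second-highest inhibition within the matrix. Inhibition was scaled from CellTiter-Glo 2.0 luminescence, with 0 set by vehicle wells and 1 by blank wells, after 72 hours of two-drug dosing of cells plated in 1536-well plates.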

[2] = tested on: HCC1806 (Breast Carcinoma); experiment: as above
Method in brief: as §1

[3] = tested on: HCC-78 (Lung Adenocarcinoma); experiment: as above
Method in brief: as §1

[4] = tested on: KELLY (Neuroblastoma); experiment: as above
Method in brief: as §1

[5] = tested on: TE-9 (Esophageal Squamous Cell Carcinoma); experiment: as above
Method in brief: as §1

[6] = tested on: SK-ES-1 (Ewing's Sarcoma); experiment: as above
Method in brief: as §1

[7] = tested on: Calu-3 (Lung Adenocarcinoma); experiment: as above
Method in brief: as §1

[8] = tested on: ME-1 (Acute Myeloid Leukemia); experiment: as above
Method in brief: as §1

[9] = tested on: MDA-MB-361 (Breast Carcinoma); experiment: as above
Method in brief: as §1

[10] = tested on: DoTc2-4510 (Cervical Carcinoma); experiment: as above
Method in brief: as §1

[11] = tested on: KYSE-520 (Esophageal Squamous Cell Carcinoma); experiment: as above
Method in brief: as §1

[12] = tested on: MFE-296 (Endometrial Carcinoma); experiment: as above
Method in brief: as §1

[13] = tested on: HOS (Osteosarcoma); experiment: as above
Method in brief: as §1

[14] = tested on: LB831-BLC (Bladder Carcinoma); experiment: as above
Method in brief: as §1

[15] = tested on: Daoy (Other Solid Carcinomas); experiment: Bliss excess, mean over the matrix (fraction); higher = more synergy
Method in brief: as §1

[16] = tested on: NOS-1 (Osteosarcoma); experiment: as above
Method in brief: as §1

[17] = tested on: B-CPAP (Thyroid Gland Carcinoma); experiment: as above
Method in brief: as §1

[18] = tested on: HuP-T4 (Pancreatic Carcinoma); experiment: as above
Method in brief: as §1

[19] = tested on: KELLY (Neuroblastoma); experiment: as above
Method in brief: as §1

[20] = tested on: Calu-3 (Lung Adenocarcinoma); experiment: as above
Method in brief: as §1

| Structure (SMILES) | combination Emax [1] | combination Emax [2] | combination Emax [3] | combination Emax [4] | combination Emax [5] | combination Emax [6] | combination Emax [7] | combination Emax [8] | combination Emax [9] | combination Emax [10] | combination Emax [11] | combination Emax [12] | combination Emax [13] | combination Emax [14] | Bliss excess [15] | Bliss excess [16] | Bliss excess [17] | Bliss excess [18] | Bliss excess [19] | Bliss excess [20] |
| --- | --- | --- | --- | --- | --- | --- | --- | --- | --- | --- | --- | --- | --- | --- | --- | --- | --- | --- | --- | --- |
| COc1nnc2ccc(N3CCC(c4ccc(OCCN5CCN(C)C(=O)[C@H]5C)cc4)CC3)nn12 [AZD5153] + C=CCn1c(=O)c2cnc(Nc3ccc(N4CCN(C)CC4)cc3)nc2n1-c1cccc(C(C)(C)O)n1 [AZD1775] (first compound max 1 µM, partner max 1 µM) | 0.867 | 0.9 | 0.421 | 1 | 0.275 | 0.941 | 0.632 | 0.572 | 0.791 | 0.473 | 0.656 | 0.581 | 0.501 | 0.668 | -0.0196 | -0.0371 | -0.0803 | -0.0435 | -0.0581 | -0.0678 |
| COc1nnc2ccc(N3CCC(c4ccc(OCCN5CCN(C)C(=O)[C@H]5C)cc4)CC3)nn12 [AZD5153] + CC1(C)CCC(CN2CCN(c3ccc(C(=O)NS(=O)(=O)c4ccc(NCC5CCOCC5)c([N+](=O)[O-])c4)c(Oc4cnc5[nH]ccc5c4)c3)CC2)=C(c2ccc(Cl)cc2)C1 [Venetoclax] (first compound max 1 µM, 7x7, partner max 1 µM) | 0.728 | 0.645 | 0.411 | 0.367 | 0.13 | 0.579 | 0.621 | 1 | 0.443 | 0.385 | 0.615 | 0.27 | 0.454 | 0.499 | -0.0568 | -0.0078 | -0.0858 | -0.0457 | -0.0857 | -0.0258 |
| COc1nnc2ccc(N3CCC(c4ccc(OCCN5CCN(C)C(=O)[C@H]5C)cc4)CC3)nn12 [AZD5153] + CCN(CCO)CCCOc1ccc2c(Nc3cc(CC(=O)Nc4cccc(F)c4)[nH]n3)ncnc2c1 [AZD2811] (first compound max 1 µM, 7x7, partner max 1 µM) | 0.765 | 0.676 | 0.489 | 0.724 | 0.218 | 0.941 | 0.635 | 0.434 | 0.49 | 0.381 | 0.605 | 0.333 | 0.486 | 0.546 | -0.0369 | -0.0391 | -0.0367 | -0.0595 | -0.0406 | -0.0303 |
| COc1nnc2ccc(N3CCC(c4ccc(OCCN5CCN(C)C(=O)[C@H]5C)cc4)CC3)nn12 [AZD5153] + C[C@@H]1COCCN1C2=NC(=NC(=C2)C3(CC3)[S@](=N)(=O)C)C4=C5C=CNC5=NC=C4 [AZD6738] (first compound max 1 µM, 7x7, partner max 10 µM) | 0.887 | 0.919 | 0.517 | 0.983 | 0.271 | 0.929 | 0.719 | 0.651 | 0.82 | 0.511 | 0.681 | 0.74 | 0.704 | 0.648 | -0.0356 | 0.0006 | 0.0219 | -0.028 | -0.0107 | 0.0066 |
| COc1nnc2ccc(N3CCC(c4ccc(OCCN5CCN(C)C(=O)[C@H]5C)cc4)CC3)nn12 [AZD5153] + Cc1c2c(nn1C)CSCc1cc(n(C)n1)CSc1cc(c3ccccc3c1)OCCCc1c(C(=O)O)n(C)c3c-2c(Cl)ccc13 [AZD5991] (first compound max 1 µM, 7x7, partner max 1 µM) | 1 | 0.755 | 0.522 | 0.993 | 0.57 | 0.948 | 0.677 | 0.793 | 0.865 | 0.362 | 0.585 | 0.878 | 0.879 | 0.587 | -0.0133 | 0.0399 | -0.0224 | -0.0461 | 0.0357 | -0.0288 |
| COc1nnc2ccc(N3CCC(c4ccc(OCCN5CCN(C)C(=O)[C@H]5C)cc4)CC3)nn12 [AZD5153] + Cn1cnc2c(F)c(Nc3ccc(Br)cc3Cl)c(C(=O)NOCCO)cc21 [Selumetinib] (first compound max 1 µM, 7x7, partner max 10 µM) | 0.894 | 0.687 | 0.451 | 0.645 | 0.35 | 0.579 | 0.887 | 0.583 | 0.642 | 0.427 | 0.691 | 0.356 | 0.544 | 0.494 | -0.0253 | 0.066 | -0.0435 | 0.0621 | 0.13 | 0.0229 |
| Cc1c2c(nn1C)CSCc1cc(n(C)n1)CSc1cc(c3ccccc3c1)OCCCc1c(C(=O)O)n(C)c3c-2c(Cl)ccc13 [AZD5991] + CC1(C)CCC(CN2CCN(c3ccc(C(=O)NS(=O)(=O)c4ccc(NCC5CCOCC5)c([N+](=O)[O-])c4)c(Oc4cnc5[nH]ccc5c4)c3)CC2)=C(c2ccc(Cl)cc2)C1 [Venetoclax] (first compound max 1 µM, 7x7, partner max 1 µM) | 0.889 | 0.596 | 0.158 | 0.999 | 0.508 | 1 | 0.135 | 1 | 0.889 | 0.287 | 0.183 | 0.593 | 0.509 | 0.439 | 0.0496 | 0.0241 | -0.0306 | -0.0106 | 0.249 | 0.0015 |
| Cc1c2c(nn1C)CSCc1cc(n(C)n1)CSc1cc(c3ccccc3c1)OCCCc1c(C(=O)O)n(C)c3c-2c(Cl)ccc13 [AZD5991] + CCN(CCO)CCCOc1ccc2c(Nc3cc(CC(=O)Nc4cccc(F)c4)[nH]n3)ncnc2c1 [AZD2811] (first compound max 1 µM, 7x7, partner max 1 µM) | 0.809 | 0.776 | 0.31 | 0.896 | 0.251 | 1 | 0.17 | 0.733 | 0.913 | 0.287 | 0.283 | 0.45 | 0.238 | 0.444 | 0.0678 | -0.0222 | 0.0082 | -0.0024 | 0.0071 | -0.0024 |
| Cc1c2c(nn1C)CSCc1cc(n(C)n1)CSc1cc(c3ccccc3c1)OCCCc1c(C(=O)O)n(C)c3c-2c(Cl)ccc13 [AZD5991] + CN(C)CCCOc1ccc(-c2ccc3ncc4c(c3c2)n(C2CCOCC2)c(=O)n4C)cn1 [AZD0156] (first compound max 1 µM, 7x7, partner max 1 µM) | 0.753 | 0.833 | 0.211 | 0.741 | 0.188 | 0.817 | 0.15 | 0.803 | 0.791 | 0.326 | 0.23 | 0.287 | 0.278 | 0.229 | 0.0145 | -0.0581 | 0.0094 | 0.0351 | -0.0469 | 0.0066 |
| Cc1c2c(nn1C)CSCc1cc(n(C)n1)CSc1cc(c3ccccc3c1)OCCCc1c(C(=O)O)n(C)c3c-2c(Cl)ccc13 [AZD5991] + C[C@@H]1COCCN1C2=NC(=NC(=C2)C3(CC3)[S@](=N)(=O)C)C4=C5C=CNC5=NC=C4 [AZD6738] (first compound max 1 µM, 7x7, partner max 10 µM) | 1 | 0.961 | 0.544 | 0.991 | 0.366 | 1 | 0.275 | 0.798 | 0.962 | 0.677 | 0.583 | 0.791 | 0.789 | 0.439 | 0.0268 | 0.0854 | 0.0032 | 0.0361 | 0.0647 | 0.0119 |
| Cc1c2c(nn1C)CSCc1cc(n(C)n1)CSc1cc(c3ccccc3c1)OCCCc1c(C(=O)O)n(C)c3c-2c(Cl)ccc13 [AZD5991] + C[C@@H](Nc1cc(F)cc(F)c1)c1cc(C(=O)N(C)C)cc2c(=O)cc(N3CCOCC3)oc12 [AZD8186] (first compound max 1 µM, 7x7, partner max 3 µM) | 0.84 | 0.6 | 0.413 | 0.726 | 0.135 | 0.866 | 0.175 | 0.787 | 0.806 | 0.384 | 0.412 | 0.265 | 0.174 | 0.366 | 0.0289 | 0.023 | -0.0409 | 0.0505 | 0.0259 | 0.0441 |
| Cc1c2c(nn1C)CSCc1cc(n(C)n1)CSc1cc(c3ccccc3c1)OCCCc1c(C(=O)O)n(C)c3c-2c(Cl)ccc13 [AZD5991] + Cc1cc2ncnn2cc1Nc1ncc2c(n1)n(C1CCOCC1)c(=O)n2C [AZD7648] (first compound max 1 µM, 7x7, partner max 10 µM) | 0.895 | 0.515 | 0.339 | 0.768 | 0.214 | 0.813 | 0.201 | 0.755 | 0.816 | 0.244 | 0.365 | 0.267 | 0.287 | 0.251 | -0.0069 | 0.0112 | -0.0155 | -0.0562 | -0.0368 | -0.0115 |
| Cc1c2c(nn1C)CSCc1cc(n(C)n1)CSc1cc(c3ccccc3c1)OCCCc1c(C(=O)O)n(C)c3c-2c(Cl)ccc13 [AZD5991] + Cn1cnc2c(F)c(Nc3ccc(Br)cc3Cl)c(C(=O)NOCCO)cc21 [Selumetinib] (first compound max 1 µM, 7x7, partner max 3 µM) | 0.895 | 0.667 | 0.253 | 0.737 | 0.162 | 0.809 | 0.121 | 0.906 | 0.816 | 0.432 | 0.355 | 0.256 | 0.229 | 0.392 | 0.02 | 0.0887 | -0.0219 | 0.113 | 0.0281 | -0.015 |
